Data on 13 compounds can be found in PubChem BioAssay (NCI).

Molecules are shown by their SMILES.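 Briefly, cells in 96-well plates were exposed to five compound concentrations for 48 h, and endpoints were estimated by linear interpolation. At the TGI there is no net growth.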 A value given as a limit tells only on which side of the number the result lay.

Test systems include CCRF-CEM leukemia; HCT-116 colon; KM12 colon; MALME-3M melanoma; MCF7 breast; OVCAR-4 ovarian; OVCAR-5 ovarian; PC-3 prostate; SK-MEL-2 melanoma; SNB-19 CNS; SNB-75 CNS; MDA-N; NCI-H522 lung.
Assay in all cases: DTP human tumour cell line panel, 48 h

As for `COc1ccc(C[C@@H]2CN(C(=O)c3ccccc3)[C@H](Cc3ccc(O)cc3)CN2C(=O)c2ccccc2)cc1Br`, the TGI with CCRF-CEM leukemia, in the assay on HCT-116 colon, in the assay on KM12 colon, in the assay on MALME-3M melanoma, with MCF7 breast and with OVCAR-4 ovarian was more than 100 µM each time. Besides, the TGI with OVCAR-5 ovarian, in the assay with PC-3 prostate, in the assay on SK-MEL-2 melanoma, with SNB-19 CNS and in the assay on SNB-75 CNS was more than 100 µM throughout.
With `COc1ccc(-n2c(CCCC(=O)O)nc3c2C(=O)c2ccccc2C3=O)cc1`, the TGI was more than 100 µM in the assay with CCRF-CEM leukemia; more than 100 µM in the assay with HCT-116 colon; more than 100 µM in the assay on KM12 colon; 59.7 µM in the assay with MALME-3M melanoma; more than 100 µM in the assay with MCF7 breast; more than 100 µM with MDA-N. The TGI with NCI-H522 lung, in the assay with OVCAR-4 ovarian, with OVCAR-5 ovarian, in the assay with SK-MEL-2 melanoma, with SNB-19 CNS and with SNB-75 CNS was more than 100 µM throughout.
For `Cc1cc(-c2ccc(C(=O)C(Cl)(Cl)Cl)[nH]2)on1`, the TGI was more than 100 µM in the assay on CCRF-CEM leukemia; more than 100 µM in the assay on HCT-116 colon; 24.6 µM in the assay with KM12 colon; more than 100 µM in the assay with MALME-3M melanoma; more than 100 µM in the assay with MDA-N; 97.4 µM with NCI-H522 lung. In addition, the TGI in the assay with OVCAR-4 ovarian was 70.1 µM; in the assay with OVCAR-5 ovarian, 73 µM; in the assay with PC-3 prostate it was more than 100 µM; with SK-MEL-2 melanoma it was 66.7 µM; in the assay with SNB-19 CNS, more than 100 µM; with SNB-75 CNS it was more than 100 µM.
Take `O=c1c2cc([N+](=O)[O-])ccc2n2n1Cc1ccccc1CC2`: the TGI in the assay with CCRF-CEM leukemia, with HCT-116 colon, with KM12 colon, with MALME-3M melanoma, with MCF7 breast and in the assay with MDA-N was more than 100 µM throughout. Moreover, the TGI in the assay on NCI-H522 lung, in the assay on OVCAR-4 ovarian, in the assay on OVCAR-5 ovarian, in the assay on PC-3 prostate, with SK-MEL-2 melanoma and with SNB-19 CNS was more than 100 µM each time.
With `Fc1cccc(F)c1C1SCC2=Nc3ccccc3CN21` (stereo not drawn), the TGI in the assay on CCRF-CEM leukemia, with HCT-116 colon, in the assay on KM12 colon, in the assay with MCF7 breast, in the assay on MDA-N and with OVCAR-4 ovarian was more than 100 µM each time. The total growth inhibition concentration (TGI) in the assay on OVCAR-5 ovarian was more than 100 µM; with PC-3 prostate it was more than 100 µM; in the assay on SNB-19 CNS, more than 100 µM; in the assay with SNB-75 CNS, 81.8 µM.
`COc1cc2c(cc1OC)C(=O)N(c1ccc(O)cc1)C2`: the TGI in the assay with CCRF-CEM leukemia, in the assay on HCT-116 colon, with MALME-3M melanoma, with MDA-N, with NCI-H522 lung and in the assay on OVCAR-4 ovarian was more than 100 µM each time. In addition, the TGI in the assay on OVCAR-5 ovarian, with PC-3 prostate, in the assay with SK-MEL-2 melanoma and in the assay with SNB-19 CNS was more than 100 µM throughout.
Turning to `CSc1nc2c(c(N(C)C)n1)C=Nn1c(nc3ccccc31)S2`, the TGI in the assay with HCT-116 colon, in the assay on KM12 colon, with MALME-3M melanoma, in the assay with MDA-N, in the assay with NCI-H522 lung and in the assay on OVCAR-4 ovarian was more than 100 µM in each case. In addition, the TGI with OVCAR-5 ovarian, with PC-3 prostate, with SK-MEL-2 melanoma, in the assay with SNB-19 CNS and with SNB-75 CNS was more than 100 µM in each case.
With `CCOC(=O)C1NCCc2c1[nH]c1ccccc21` (stereo not drawn), the TGI in the assay on CCRF-CEM leukemia, in the assay with KM12 colon, with MALME-3M melanoma, in the assay with MCF7 breast, in the assay on MDA-N and in the assay on NCI-H522 lung was more than 10 µM in each case. In addition, the TGI in the assay on OVCAR-4 ovarian, in the assay on PC-3 prostate and in the assay with SNB-75 CNS was more than 10 µM throughout.
On to `CC(C)(C)C1CCC2c3c([nH]c4ccccc34)C3C(=O)N(c4cc(Br)cc(Br)c4)C(=O)C3C2C1` (stereo not drawn), for which the TGI is 25.1 µM in the assay on CCRF-CEM leukemia; 23.1 µM in the assay on HCT-116 colon; more than 100 µM with KM12 colon; more than 100 µM in the assay with MALME-3M melanoma; 17.5 µM in the assay with MCF7 breast; more than 100 µM in the assay on MDA-N. Moreover, the TGI in the assay with NCI-H522 lung was 66.4 µM; with OVCAR-4 ovarian, 69.7 µM; in the assay with OVCAR-5 ovarian, more than 100 µM; with PC-3 prostate, 33.2 µM; in the assay on SK-MEL-2 melanoma, 47.5 µM.
With `c1cc(-c2cscc2-c2ccsc2)cs1`, the TGI was more than 100 µM in the assay with CCRF-CEM leukemia; more than 100 µM in the assay on HCT-116 colon; 38 µM with KM12 colon; more than 100 µM in the assay with MCF7 breast; more than 100 µM with MDA-N; more than 100 µM in the assay with OVCAR-4 ovarian. Further, the TGI is more than 100 µM in the assay on OVCAR-5 ovarian, more than 100 µM with PC-3 prostate, 28.4 µM in the assay on SK-MEL-2 melanoma and more than 100 µM in the assay on SNB-75 CNS.
Consider `CCOC(=O)c1ccc(NC2Oc3cc4c(cc3C(c3cc(OC)c(OC)c(OC)c3)C2C)OCO4)cc1` (stereo not drawn), for which the TGI was more than 20.3 µM with CCRF-CEM leukemia; more than 51.7 µM in the assay on HCT-116 colon; 3.69 µM in the assay on KM12 colon; 0.677 µM in the assay with MALME-3M melanoma; more than 48.5 µM in the assay on MCF7 breast; 10.6 µM in the assay on NCI-H522 lung. Also, the TGI in the assay on OVCAR-4 ovarian was more than 64.7 µM; with OVCAR-5 ovarian, more than 100 µM; with PC-3 prostate, more than 100 µM; with SK-MEL-2 melanoma, more than 63.4 µM; in the assay on SNB-19 CNS, more than 100 µM; in the assay with SNB-75 CNS it was 0.704 µM.
On to `NCCC1(N)CCNCC1`, for which the TGI with CCRF-CEM leukemia, in the assay on HCT-116 colon, in the assay with KM12 colon, with MALME-3M melanoma, with MDA-N and with NCI-H522 lung was more than 100 µM throughout. Further, the TGI with OVCAR-4 ovarian, in the assay with OVCAR-5 ovarian, with PC-3 prostate, in the assay with SK-MEL-2 melanoma, in the assay with SNB-19 CNS and in the assay on SNB-75 CNS was more than 100 µM in each case.
As to `COc1c2nc(CCl)n(C)c(=O)c2c(OC)c2c(=O)n(C)c(CCl)nc12`, the TGI with CCRF-CEM leukemia stood at 2.09 µM; in the assay on KM12 colon, 2.46 µM; in the assay on MALME-3M melanoma, 3.44 µM; in the assay with MCF7 breast, 2.36 µM; in the assay on MDA-N it was 3.31 µM; with NCI-H522 lung, 2.8 µM. Besides, the TGI in the assay with OVCAR-4 ovarian is more than 100 µM; in the assay with OVCAR-5 ovarian, 7.75 µM; with PC-3 prostate it was 2.68 µM; in the assay on SNB-19 CNS, 5.07 µM; in the assay on SNB-75 CNS it was 3.8 µM.

For orientation: TGI means the concentration giving total growth inhibition. A high value points to lower sensitivity of the cells.
